14 molecules from patent publication US7538123B2, “Indole derivative having piperidine ring” (Eisai R & D Management Co., Ltd., priority 2004, dated 2009) can be followed below.

As a reminder, the ED50 is the dose that gives a 50% effect, or the effect in half of the subjects.

SMILES strings stand for the structures. Some results are limits rather than exact numbers.

One assay addresses T1, 5-HT1A receptor (Sus scrofa, UniProt A0A4X1UTF5).
T1 construct: from tissue; host or cells: swine hippocampus, membrane fraction
T1 sequence (A0A4X1UTF5 1-422): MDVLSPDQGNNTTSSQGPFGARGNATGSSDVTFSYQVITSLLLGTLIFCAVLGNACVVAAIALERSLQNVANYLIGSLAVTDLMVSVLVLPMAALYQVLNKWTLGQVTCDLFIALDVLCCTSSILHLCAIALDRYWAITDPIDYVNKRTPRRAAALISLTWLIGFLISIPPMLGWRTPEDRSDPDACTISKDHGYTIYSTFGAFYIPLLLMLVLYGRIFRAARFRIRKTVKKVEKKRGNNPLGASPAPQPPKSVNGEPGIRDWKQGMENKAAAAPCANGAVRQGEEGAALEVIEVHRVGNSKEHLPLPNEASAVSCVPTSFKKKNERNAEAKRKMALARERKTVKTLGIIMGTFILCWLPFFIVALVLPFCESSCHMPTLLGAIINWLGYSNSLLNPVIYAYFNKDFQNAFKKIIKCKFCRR
In words: Test regarding affinity for serotonin 1A receptor ([3H]MPPF binding inhibition). Also on record: species or system swine.
Conditions: not given
An excerpt:
(1) The affinity of a test substance for a 5-HT1A receptor was examined by an inhibition experiment, in which the inhibitory effect of the test substance against the binding of [^3H]-4-(2′-methoxy)phenyl-1-(2′-(N-2″-pyridinyl)-p-fluorobenzamido)ethyl-piperazine (MPPF) that selectively binds to the 5-HT1A receptor in a swine hippocampal membrane fraction was examined. The 5-HT1A receptor that is a G-protein binding receptor becomes a G-protein binding state with addition of MgCl2. In contrast, it becomes a G-protein non-binding state with addition of guanylylimido diphosphate (Gpp(NH)p). […] Thus, both the affinity of a test substance to the receptor that was in a state of not binding to the G-protein and the affinity of the test substance to the receptor that was in a state of binding to the G-protein were obtained. […]
A mixture (0.5 ml) used for incubation comprised an appropriate amount of the membrane fraction, a test substance with a desired concentration, MgCl2 (final concentration: 10 mM) or Gpp(NH)p (final concentration: 1 mm ), [^3H]MPPF (final concentration: 0.5 nM), dimethyl sulfoxide (final concentration: 1% (v/v)), and a 50 mM Tris-Hcl buffer (pH 7.4). […] Thereafter, radioactivity binding to the receptor was measured with a liquid scintillation counter. Non-specific binding was defined as binding detected in the presence of 10 μM WAY-100,635.
Turning to `NC(=O)c1ccc2ccn(C3CCN(CCc4ccc(F)cc4)CC3)c2c1` [Compound A, reference compound], the “affinity for 5-HT1A / receptor binding action (in words)” value is given as “has affinity”.

Staying with this assay, now noted: low affinity IC50 divided by high affinity IC50; 1 or smaller = no intrinsic activity, 2 or greater = intrinsic activity.
As to `COc1cc2c(cc1CCN1CCC(n3ccc4ccc(C(N)=O)cc43)CC1)N(C)C(=O)OC2` [Compound 39, 1-{1-[2-(6-methoxy-methyl-oxo-1,4-dihydro-2H-benz[d][1,3]oxazin-7-yl)ethyl]piperidin-4-yl}-1H-indole-6-carboxamide], the L/H ratio came to 0.7.

Another assay concerns the target T2, serotonin 1A receptor (Mus musculus, UniProt Q64264).
T2 construct: into the rectum of CD-1 (ICR) male mice (25-45 g); from tissue; host or cells: living CD-1 (ICR) male mice (whole animal)
T2 sequence (Q64264 1-421): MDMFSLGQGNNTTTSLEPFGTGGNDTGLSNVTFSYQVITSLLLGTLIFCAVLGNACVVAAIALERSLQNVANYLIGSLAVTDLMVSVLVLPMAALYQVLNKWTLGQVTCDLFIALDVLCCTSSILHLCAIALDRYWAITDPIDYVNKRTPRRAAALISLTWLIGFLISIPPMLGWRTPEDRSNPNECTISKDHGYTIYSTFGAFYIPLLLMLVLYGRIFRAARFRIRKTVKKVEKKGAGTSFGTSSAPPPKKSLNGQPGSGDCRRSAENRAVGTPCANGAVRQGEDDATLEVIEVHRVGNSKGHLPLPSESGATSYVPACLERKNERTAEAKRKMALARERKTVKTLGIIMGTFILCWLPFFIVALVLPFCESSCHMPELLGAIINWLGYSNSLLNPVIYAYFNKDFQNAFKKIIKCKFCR
In words: Antagonistic effect on serotonin 1A receptor agonist-induced hypothermia in mouse. Type of assay: in vivo. Particulars: in vivo. The method, then:
(1) A thermistor probe was inserted at a depth of approximately 2 cm into the rectum of CD-1 (ICR) male mice (25-45 g), so as to measure the body temperature thereof. Body temperature is decreased by subcutaneous administration of serotonin 1A receptor agonist (8-hydroxy-dipropylaminotetralin) 0.5 mg/kg. Since a serotonin 1A antagonist inhibits such action, the antagonistic effect of a test substance to a serotonin 1A receptor was evaluated using the inhibitory effect of the hypothermia as an index. A test substance was administered 15 minutes before the administration of the serotonin 1A agonist. A serotonin 1A partial agonist alone decreases the body temperature, depending on the degree of the agonistic action thereof. In addition, it has a weak antagonistic effect on 8-hydroxy-dipropylaminotetralin-induced hypothermia. (2) Results
For `NC(=O)c1ccc2ccn(C3CCN(CCc4ccc(F)cc4)CC3)c2c1` [Compound A, reference compound], the “antagonistic effect against the 5-HT1A receptor / pharmacological effect (in words)” value was “weak”.

Still in this assay, the particulars now being: sc.
In turn, `CNC(=O)c1ccc2ccn(C3CCN(CCc4c(OC)ccc5c4OC(C)(C)CC5O)CC3)c2c1` (stereo not shown) [Compound 48, 1-{1-[2-(4-hydroxy-7-methoxy-2,2-dimethylchroman-8-yl)ethyl]piperidin-4-yl}-N-methyl-1H-indole-6-carboxamide] displayed an ED50 of 0.06 mg/kg. In the case of `COc1cc2cccnc2cc1CCN1CCC(n2ccc3ccc(C(N)=O)cc32)CC1` [Compound 51, 1-{1-[2-(6-methoxyquinolin-7-yl)ethyl]piperidin-4-yl}-1H-indole-6-carboxamide], the ED50 turned out to be 0.66 mg/kg.

Still in this assay, the particulars now being: sc, 15 minutes before 8-hydroxy-dipropylaminotetralin 0.5 mg/kg sc, inhibition of hypothermia, CD-1 (ICR) male mice, read-out: ED50.
As for `COc1ccc2c(c1CCN1CCC(n3ccc4ccc(C(N)=O)cc43)CC1)OCCC2O` (stereo not shown) [Compound 46, 1-{1-[2-(4-hydroxy-7-methoxychroman-8-yl)ethyl]piperidin-4-yl}-1H-indole-6-carboxamide], the ED50 worked out at 0.3 mg/kg. `COc1ccc2c(c1CCN1CCC(n3ccc4ccc(C(N)=O)cc43)CC1)OCCC2=O` [Compound 47, 1-{1-[2-(7-methoxy-4-oxochroman-8-yl)ethyl]piperidin-4-yl}-1H-indole-6-carboxamide]: the ED50 was 0.21 mg/kg.

For the molecule `COc1ccc2c(c1CCN1CCC(n3ccc4ccc(C(N)=O)cc43)CC1)CCC2O` (stereo not shown) [Compound 49, 1-{1-[2-(1-hydroxy-5-methoxyindan-4-yl)ethyl]piperidin-4-yl}-1H-indole-6-carboxamide], the ED50 was determined as 0.28 mg/kg. Turning to `COc1cc2c(cc1CCN1CCC(n3ccc4ccc(C(N)=O)cc43)CC1)N(C(C)=O)CCC2` [Compound 52, 1-{1-[2-(1-acetyl-6-methoxy-1,2,3,4-tetrahydroquinolin-7-yl)ethyl]piperidin-4-yl}-1H-indole-6-carboxamide], the ED50 is 0.5 mg/kg. Take `COc1cc2c(cc1CCN1CCC(n3ccc4ccc(C(N)=O)cc43)CC1)N(C)CCC2` [Compound 53, 1-{1-[2-(6-methoxy-1-methyl-1,2,3,4-tetrahydroquinolin-7-yl)ethyl]piperidin-4-yl}-1H-indole-6-carboxamide]: the median effective dose (ED50) amounted to 0.3 mg/kg. Take `COc1ccc2c(c1CCN1CCC(n3ccc4ccc(C(N)=O)cc43)CC1)CCCN2C(C)=O` [Compound 54, 1-{1-[2-(1-acetyl-6-methoxy-1,2,3,4-tetrahydroquinolin-5-yl)ethyl]piperidin-4-yl}-1H-indole-6-carboxamide]: the ED50 came to 0.84 mg/kg. As to `COc1cc2c(cc1CCN1CCC(n3ccc4ccc(C(N)=O)cc43)CC1)N(C)C(=O)CC2` [Compound 57, 1-{1-[2-(6-methoxy-1-methyl-2-oxo-1,2,3,4-tetrahydroquinolin-7-yl)ethyl]piperdin-4-yl}-1H-indole-6-carboxamide], the ED50 came to 0.1 mg/kg. Consider `CNC(=O)c1ccc2ccn(C3CCN(CCc4cc5c(cc4OC)CCC(=O)N5C)CC3)c2c1` [Compound 58, 1-{1-[2-(6-methoxy-1-methyl-2-oxo-1,2,3,4-tetrahydroquinolin-7-yl)ethyl]piperidin-4-yl}-N-methyl-1H-indole-6-carboxamide], for which the ED50 turned out to be 0.53 mg/kg.

As to `CCN1C(=O)CCc2cc(OC)c(CCN3CCC(n4ccc5ccc(C(N)=O)cc54)CC3)cc21` [Compound 59, 1-{1-[2-(1-ethyl-6-methoxy-2-oxo-1,2,3,4-tetrahydroquinolin-7-yl)ethyl]piperidin-4-yl}-1H-indole-6-carboxamide], the ED50 came to 0.3 mg/kg. Same read-out and setting: for `CCn1c(=O)oc2cc(OC)c(CCN3CCC(n4ccc5ccc(C(N)=O)cc54)CC3)cc21` [Compound 60, 1-{1-[2-(3-ethyl-6-methoxy-2-oxo-2,3-dihydrobenzoxazol-5-yl)ethyl]piperidin-4-yl}-1H-indole-6-carboxamide] the value was 0.52 mg/kg.

In the case of `NC(=O)c1ccc2ccn(C3CCN(CCc4ccc(F)cc4)CC3)c2c1` [Compound A, reference compound], the ED50 is greater than 1 mg/kg.
